Legend:
Format in all cases: in vivo
[1] = system: barnyardgrass (Echinochloa crus-galli); experiment: Test A pre-/postemergence plant response
Method in brief: (§1)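 Seeds planted in loam soil/sand blend; test chemicals in non-phytotoxic solvent mixture with surfactant applied as directed soil spray preemergence and, concurrently, postemergence to plants 2–10 cm tall at one- to two-leaf stage. Greenhouse ~10 days; visual injury vs untreated controls, 0 (no effect) to 100 (complete control).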

[2] = system: wheat (Triticum aestivum); experiment: Test A pre-/postemergence plant response
Method in brief: as §1

[3] = system: morningglory (Ipomoea spp.); experiment: Test A pre-/postemergence plant response
Method in brief: as §1

[4] = system: pigweed (Amaranthus retroflexus); experiment: Test A pre-/postemergence plant response
Method in brief: as §1

[5] = system: velvetleaf (Abutilon theophrasti); experiment: Test A pre-/postemergence plant response
Method in brief: as §1

[6] = system: giant foxtail (Setaria faberii); experiment: Test A pre-/postemergence plant response
Method in brief: as §1

[7] = system: large crabgrass (Digitaria sanguinalis); experiment: Test A pre-/postemergence plant response
Method in brief: as §1

corn (Zea mays) = experiment: Test A pre-/postemergence plant response
Method in brief: as §1

[8] = system: barnyardgrass (Echinochloa crus-galli); experiment: Test B flooded paddy test; conditions: for Plant response rating, Flood, Barnyardgrass: 250 g ai/ha, flooded paddy test, visual rating on 0 to 100 scale (0 no effect, 100 complete control) after 13 to 15 days; for Plant response rating, Barnyardgrass: Flood (flooded paddy test), 13 to 15 days
Method in brief: (§2)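 Visual scores run from 0 (no effect) to 100 (complete control), assigned by comparison with controls 13 to 15 days after treatment. Test compounds went straight into water standing 3 cm above the soil, around plants at the 2-leaf stage kept in a greenhouse.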

[9] = system: umbrella sedge (Cyperus difformis); experiment: Test B flooded paddy test; conditions: for Plant response rating, Flood, Sedge, Umbrella: 250 g ai/ha, flooded paddy test, visual rating on 0 to 100 scale (0 no effect, 100 complete control) after 13 to 15 days; for Plant response rating, Sedge, Umbrella: Flood (flooded paddy test), 13 to 15 days
Method in brief: as §2

rice (Oryza sativa) = experiment: Test B flooded paddy test; conditions: for Plant response rating, Flood, Rice: 250 g ai/ha, flooded paddy test, visual rating on 0 to 100 scale (0 no effect, 100 complete control) after 13 to 15 days; for Plant response rating, Rice: Flood (flooded paddy test), 13 to 15 days
Method in brief: as §2

[10] = system: ducksalad (Heteranthera limosa); experiment: Test B flooded paddy test; conditions: for Plant response rating, Flood, Ducksalad: 250 g ai/ha, flooded paddy test, visual rating on 0 to 100 scale (0 no effect, 100 complete control) after 13 to 15 days; for Plant response rating, Ducksalad: Flood (flooded paddy test), 13 to 15 days
Method in brief: as §2

[11] = Postemergence, 125 g ai/ha, 0 to 100 scale where 0 is no effect and 100 is complete control
[12] = Postemergence, 500 g ai/ha, visual injury, 0 to 100 scale (0 no effect, 100 complete control), approx. ten days
[13] = Preemergence, 125 g ai/ha, 0 to 100 scale, 0 = no effect, 100 = complete control
[14] = Preemergence, 500 g ai/ha, 0 to 100 scale, 0 = no effect, 100 = complete control
[15] = 62 g ai/ha, scale of 0 to 100 where 0 is no effect and 100 is complete control
[16] = 125 g ai/ha, scale 0 to 100, 0 is no effect, 100 is complete control
[17] = Flood, 31 g ai/ha, scale 0 to 100 (0 no effect, 100 complete control)
[18] = Postemergence, 125 g ai/ha, visual injury, 0 to 100 scale (0 no effect, 100 complete control), approx. ten days
[19] = Postemergence, 500 g ai/ha, 0 to 100 scale, 0 = no effect, 100 = complete control, approx. ten days
[20] = Preemergence, 500 g ai/ha, visual injury, 0 to 100 scale (0 no effect, 100 complete control), approx. ten days
[21] = 62 g ai/ha, scale 0 to 100, 0 is no effect, 100 is complete control
[22] = 31 g ai/ha, scale of 0 to 100 where 0 is no effect and 100 is complete control

For CCCn1c(-c2ccsc2)ncc(C(=O)C2=C(O)C3CCC(C3)C2=O)c1=O (stereo not shown) [Compound 227], the “Plant response rating, Barnyardgrass” value [1, 11] was 90, the “Barnyardgrass plant response rating” value [1, 12] was 90 and the “Plant response rating, Barnyardgrass” value [1, 13] was 50. The “Plant response rating, Barnyardgrass” value [1, 14] was 100, the “Plant response rating, Wheat” value [2, 11] was 0 and the “Wheat plant response rating” value [2, 12] was 0. For the same molecule, the “Plant response rating, Wheat” value [2, 13] was 0, the “Plant response rating, Wheat” value [2, 14] was 10 and the “Plant response rating, Morningglory” value [3, 11] was 100. The “Morningglory plant response rating” value [3, 12] was 100, the “Plant response rating, Morningglory” value [3, 13] was 50 and the “Plant response rating, Morningglory” value [3, 14] was 80. The “Plant response rating, Pigweed” value [4, 11] was 100, the “Pigweed plant response rating” value [4, 12] was 100 and the “Plant response rating, Pigweed” value [4, 13] was 80. For the same molecule, the “Plant response rating, Pigweed” value [4, 14] was 100, the “Plant response rating, Velvetleaf” value [5, 11] was 100 and the “Velvetleaf plant response rating” value [5, 12] was 100. The “Plant response rating, Velvetleaf” value [5, 13] was 90, the “Plant response rating, Velvetleaf” value [5, 14] was 100 and the “Plant response rating, Foxtail, Giant” value [6, 11] was 90. For the same molecule, the “Foxtail, Giant plant response rating” value [6, 12] was 90, the “Plant response rating, Foxtail, Giant” value [6, 13] was 40 and the “Plant response rating, Foxtail, Giant” value [6, 14] was 80. For the same molecule, the “Plant response rating, Crabgrass, Large” value [7, 11] was 90, the “Crabgrass, Large plant response rating” value [7, 12] was 100 and the “Plant response rating, Crabgrass, Large” value [7, 13] was 90. The “Plant response rating, Crabgrass, Large” value [7, 14] was 100, the “Plant response rating, Corn” value (corn (Zea mays); [11]) was 10 and the “Corn plant response rating” value (corn (Zea mays); [12]) was 60. For the same molecule, the “Plant response rating, Corn” value (corn (Zea mays); [13]) was 0, the “Plant response rating, Corn” value (corn (Zea mays); [14]) was 10 and the “Plant response rating, Flood, Barnyardgrass” value [8] was 60. The “Plant response rating, Barnyardgrass” value [8, 15] was 40, the “Plant response rating, Barnyardgrass” value [8, 16] was 50 and the “Barnyardgrass plant response rating” value [8, 17] was 20. For the same molecule, the “Plant response rating, Flood, Sedge, Umbrella” value [9] was 85, the “Plant response rating, Sedge, Umbrella” value [9, 15] was 85 and the “Plant response rating, Sedge, Umbrella” value [9, 16] was 85. For the same molecule, the “Sedge, Umbrella plant response rating” value [9, 17] was 80, the “Plant response rating, Flood, Rice” value (rice (Oryza sativa)) was 55 and the “Plant response rating, Rice” value (rice (Oryza sativa); [15]) was 30. The “Plant response rating, Rice” value (rice (Oryza sativa); [16]) was 45, the “Rice plant response rating” value (rice (Oryza sativa); [17]) was 20 and the “Plant response rating, Flood, Ducksalad” value [10] was 80. For the same molecule, the “Plant response rating, Ducksalad” value [10, 16] was 75.

For Cc1ccc(F)cc1-n1c(-c2ccccc2)ncc(C(=O)C2=C(O)CCCC2=O)c1=O [Compound 44], the “Barnyardgrass plant response rating” value [1, 18] was 90, the “Plant response rating, Barnyardgrass” value [1, 19] was 100 and the “Plant response rating, Barnyardgrass” value [1, 13] was 30. For the same molecule, the “Plant response rating, Barnyardgrass” value [1, 20] was 100, the “Wheat plant response rating” value [2, 18] was 0 and the “Plant response rating, Wheat” value [2, 19] was 20. For the same molecule, the “Plant response rating, Wheat” value [2, 13] was 0, the “Plant response rating, Wheat” value [2, 20] was 0 and the “Morningglory plant response rating” value [3, 18] was 80. The “Plant response rating, Morningglory” value [3, 19] was 90, the “Plant response rating, Morningglory” value [3, 13] was 20 and the “Plant response rating, Morningglory” value [3, 20] was 70. For the same molecule, the “Pigweed plant response rating” value [4, 18] was 100, the “Plant response rating, Pigweed” value [4, 19] was 100 and the “Plant response rating, Pigweed” value [4, 13] was 60. The “Plant response rating, Pigweed” value [4, 20] was 90, the “Velvetleaf plant response rating” value [5, 18] was 100 and the “Plant response rating, Velvetleaf” value [5, 19] was 100. For the same molecule, the “Plant response rating, Velvetleaf” value [5, 13] was 70, the “Plant response rating, Velvetleaf” value [5, 20] was 100 and the “Foxtail, Giant plant response rating” value [6, 18] was 80. The “Plant response rating, Foxtail, Giant” value [6, 19] was 90, the “Plant response rating, Foxtail, Giant” value [6, 13] was 30 and the “Plant response rating, Foxtail, Giant” value [6, 20] was 90. The “Crabgrass, Large plant response rating” value [7, 18] was 80, the “Plant response rating, Crabgrass, Large” value [7, 19] was 90 and the “Plant response rating, Crabgrass, Large” value [7, 13] was 80. For the same molecule, the “Plant response rating, Crabgrass, Large” value [7, 20] was 90, the “Corn plant response rating” value (corn (Zea mays); [18]) was 0 and the “Plant response rating, Corn” value (corn (Zea mays); [19]) was 40. For the same molecule, the “Plant response rating, Corn” value (corn (Zea mays); [13]) was 0, the “Plant response rating, Corn” value (corn (Zea mays); [20]) was 0 and the “Plant response rating, Flood, Barnyardgrass” value [8] was 30. The “Plant response rating, Barnyardgrass” value [8, 21] was 0, the “Plant response rating, Flood, Sedge, Umbrella” value [9] was 90 and the “Plant response rating, Sedge, Umbrella” value [9, 21] was 80. For the same molecule, the “Plant response rating, Flood, Rice” value (rice (Oryza sativa)) was 40, the “Plant response rating, Rice” value (rice (Oryza sativa); [21]) was 20 and the “Plant response rating, Flood, Ducksalad” value [10] was 90. The “Plant response rating, Ducksalad” value [10, 21] was 80.

For CCCCc1ncc(C(=O)C2=C(O)CCCC2=O)c(=O)n1-c1cccc(C)c1 [Compound 63], the “Barnyardgrass plant response rating” value [1, 18] was 70, the “Plant response rating, Barnyardgrass” value [1, 19] was 90 and the “Plant response rating, Barnyardgrass” value [1, 13] was 10. For the same molecule, the “Plant response rating, Barnyardgrass” value [1, 20] was 90, the “Wheat plant response rating” value [2, 18] was 0 and the “Plant response rating, Wheat” value [2, 19] was 0. For the same molecule, the “Plant response rating, Wheat” value [2, 20] was 0, the “Morningglory plant response rating” value [3, 18] was 100 and the “Plant response rating, Morningglory” value [3, 19] was 100. For the same molecule, the “Plant response rating, Morningglory” value [3, 13] was 10, the “Plant response rating, Morningglory” value [3, 20] was 70 and the “Pigweed plant response rating” value [4, 18] was 90. The “Plant response rating, Pigweed” value [4, 19] was 100, the “Plant response rating, Pigweed” value [4, 13] was 100 and the “Plant response rating, Pigweed” value [4, 20] was 100. The “Velvetleaf plant response rating” value [5, 18] was 100, the “Plant response rating, Velvetleaf” value [5, 19] was 100 and the “Plant response rating, Velvetleaf” value [5, 13] was 80. The “Plant response rating, Velvetleaf” value [5, 20] was 90, the “Foxtail, Giant plant response rating” value [6, 18] was 60 and the “Plant response rating, Foxtail, Giant” value [6, 19] was 80. For the same molecule, the “Plant response rating, Foxtail, Giant” value [6, 13] was 50, the “Plant response rating, Foxtail, Giant” value [6, 20] was 80 and the “Crabgrass, Large plant response rating” value [7, 18] was 80. The “Plant response rating, Crabgrass, Large” value [7, 19] was 90, the “Plant response rating, Crabgrass, Large” value [7, 13] was 90 and the “Plant response rating, Crabgrass, Large” value [7, 20] was 100. For the same molecule, the “Corn plant response rating” value (corn (Zea mays); [18]) was 10, the “Plant response rating, Corn” value (corn (Zea mays); [19]) was 50 and the “Plant response rating, Corn” value (corn (Zea mays); [13]) was 0. The “Plant response rating, Corn” value (corn (Zea mays); [20]) was 0, the “Plant response rating, Flood, Barnyardgrass” value [8] was 10 and the “Plant response rating, Barnyardgrass” value [8, 22] was 0. The “Plant response rating, Barnyardgrass” value [8, 15] was 0, the “Plant response rating, Barnyardgrass” value [8, 16] was 0 and the “Plant response rating, Flood, Sedge, Umbrella” value [9] was 0. The “Plant response rating, Sedge, Umbrella” value [9, 22] was 0, the “Plant response rating, Sedge, Umbrella” value [9, 15] was 0 and the “Plant response rating, Sedge, Umbrella” value [9, 16] was 0. For the same molecule, the “Plant response rating, Flood, Rice” value (rice (Oryza sativa)) was 10, the “Plant response rating, Rice” value (rice (Oryza sativa); [22]) was 0 and the “Plant response rating, Rice” value (rice (Oryza sativa); [15]) was 0. For the same molecule, the “Plant response rating, Rice” value (rice (Oryza sativa); [16]) was 0, the “Plant response rating, Flood, Ducksalad” value [10] was 40 and the “Plant response rating, Ducksalad” value [10, 22] was 0. The “Plant response rating, Ducksalad” value [10, 15] was 20 and the “Plant response rating, Ducksalad” value [10, 16] was 40.

From patent publication US8952024B2, “Herbicidal pyrimidone derivatives” (E I du Pont de Nemours and Company, priority 2009, dated 2015)
